Where a name gives a salt, the structure may show the parent alone. Read-outs that look alike come from different tables or passages of the source.
Experiments:
[1] = test system: monoamine oxidase; details: literature reference (2); cited from earlier work
[2] = biological target: T1, Brain AChE (Rattus norvegicus, UniProt P37136); assay: In vitro inhibition of acetylcholinesterase activity in rat striatum; format: biochemical
T1 construct: corpora striata dissected free, weighed and homogenized in 19 volumes; from tissue; host or cells: corpora striata of male Wistar rats, whole homogenate
Description: In Vitro Inhibition of Acetylcholinesterase Activity in Rat Striatum
The method described below was used in this invention for assaying cholinesterase activity. This is a modification of the method of Ellman et al., Biochem. Pharmacol. 7, 88 (1961).
4. A 2 mM stock solution of the test drug is made up in a suitable solvent and brought to volume with 0.5 mM DTNB (reagent 3).
Drugs are serially diluted (1:10) such that the final concentration (in cuvette) is 10^-4 M and screened for activity. If active, IC50 values are determined from the inhibitory activity of subsequent concentrations.
Male Wistar rats are decapitated, brains rapidly removed, corpora striata dissected free, weighed and homogenized in 19 volumes (approximately 7 mg protein/ml) of 0.05M phosphate buffer, pH 7.2 using a Potter-Elvehjem homogenizer. A 25 microliter aliquot of the homogenate is added to 1.0 milliter vehicle or various concentrations of the test drug and preincubated for 10 minutes at 37° C.
Enzyme activity is measured with the Beckman DU-50 spectrophotometer. This method can be used for IC50 determinations and for measuring kinetic constants.
Reagents are added to the blank and sample cuvettes as follows:
Blank values are determined for each run to control for non-enzymatic hydrolysis of substrate and these values are automatically subtracted by the kindata program available on kinetics soft-pac module. This program also calculates the rate of absorbance change for each cuvette.
Substrate concentration is 10 mM diluted 1:2 in assay yielding final concentration of 5 mM. DTNB concentration is 0.5 mM yielding 0.25 mM final concentration. [formula] IC50 values are calculated from log-probit analysis.

[3] = biological target: T2, MAO-A (Rattus norvegicus, UniProt P21396); assay: Ex vivo monoamine oxidase inhibition assay, Type A; format: in vivo; details: po
T2 construct: the whole brain without cerebellum was dissected rapidly and frozen on dry ice; from tissue; host or cells: whole brain without cerebellum of orally dosed male Wistar rats, homogenate
T2 sequence (P21396 1-526): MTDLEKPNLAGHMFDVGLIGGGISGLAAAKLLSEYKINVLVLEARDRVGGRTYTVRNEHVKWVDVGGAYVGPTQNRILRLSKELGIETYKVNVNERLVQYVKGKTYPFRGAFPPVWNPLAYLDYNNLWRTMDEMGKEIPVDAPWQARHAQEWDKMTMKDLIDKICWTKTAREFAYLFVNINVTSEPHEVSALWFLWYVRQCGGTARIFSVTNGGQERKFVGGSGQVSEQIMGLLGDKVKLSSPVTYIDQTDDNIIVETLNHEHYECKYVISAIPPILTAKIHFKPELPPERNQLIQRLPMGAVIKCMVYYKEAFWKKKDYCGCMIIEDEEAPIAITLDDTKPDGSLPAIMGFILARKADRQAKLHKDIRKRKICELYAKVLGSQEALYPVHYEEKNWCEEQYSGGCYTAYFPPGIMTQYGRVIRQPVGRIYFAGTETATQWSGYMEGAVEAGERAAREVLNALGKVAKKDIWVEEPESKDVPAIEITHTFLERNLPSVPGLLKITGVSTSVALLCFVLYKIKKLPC
Description: (§1) The enzyme monoamine oxidase (MAO) exists in two catalytically distinguishable forms termed MAO-A and MAO-B. The ability of the compounds of the invention to inhibit MAO ex vivo in the rat was determined using a procedure adapted from the procedure set forth in The Journal of Pharmacology and Experimental Therapeutics, Vol. 248, No. 1, (1989), pp. 400-414.
(§2) The compound to be tested was administered to male Wistar rats orally. At specified times after administration the rats were decapitated and the whole brain without cerebellum was dissected rapidly and frozen on dry ice. The samples were stored at -80° C. until measurement of the MAO activity. After thawing, the tissues were homogenized in 5 volumes of 0.1 mol/l of potassium-phosphate buffer, pH 7.4, using all glass homogenisers. MAO activity was determined essentially as described by Wurtman and Axelrod. Biochem. Pharmacol. 12: 1439-1441, (1963).
(§3) The enzyme reaction was started by addition of 80 μl of the MAO-A substrate [^3 H]-5-HT (0.96 mCi/mmol, final amine concentration is 200 μM or of the MAO-B substrate [^14 C]PEA (0.192 mCi/mmol, final amine concentration is 200 μM and the incubation continued for 10 minutes at 37° C. Then, the reaction was stopped by addition of 200 μl of 2N HCl, and the deaminated metabolites were extracted by vigorous shaking for 10 minutes with 5 ml of diethylether (5-HT-extraction) or n-heptane (PEA-extraction). After centrifugation (1000×g; 30 sec) the water-phase was frozen in dry ice and the organic layer poured into plastic vials containing 5 ml of scintillation cocktail. Finally, the radioactivity was determined in a scintillation spectrometer. Reaction mixtures as described above but lacking the homogenate served as blanks.

[4] = biological target: T3, MAO-B (Rattus norvegicus, UniProt P19643); assay: Ex vivo monoamine oxidase inhibition assay, Type B; format: in vivo; details: po
T3 construct: the whole brain without cerebellum was dissected rapidly and frozen on dry ice; from tissue; host or cells: whole brain without cerebellum of orally dosed male Wistar rats, homogenate
T3 sequence (P19643 1-520): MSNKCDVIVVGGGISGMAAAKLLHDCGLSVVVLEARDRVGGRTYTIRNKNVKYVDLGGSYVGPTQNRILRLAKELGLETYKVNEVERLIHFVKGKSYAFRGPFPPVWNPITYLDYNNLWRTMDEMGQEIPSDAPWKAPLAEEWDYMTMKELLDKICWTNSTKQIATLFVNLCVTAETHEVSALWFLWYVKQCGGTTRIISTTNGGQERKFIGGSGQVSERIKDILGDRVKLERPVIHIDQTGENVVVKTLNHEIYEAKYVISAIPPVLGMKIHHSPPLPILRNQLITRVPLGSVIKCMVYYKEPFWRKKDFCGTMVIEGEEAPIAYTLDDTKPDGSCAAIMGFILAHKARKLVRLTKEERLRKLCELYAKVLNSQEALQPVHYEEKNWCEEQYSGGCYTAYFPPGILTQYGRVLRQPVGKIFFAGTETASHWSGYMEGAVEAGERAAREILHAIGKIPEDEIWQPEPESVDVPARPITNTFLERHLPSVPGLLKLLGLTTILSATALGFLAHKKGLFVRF
Description: as §1, §2, §3

[5] = rat striatum homogenate, pH 7.2, read-out: Inhibitory Concentration IC50 Brain AChE
[6] = 50 mg/kg, p.o., 0.5 h, read-out: Ex vivo inhibition (%) of monoamine oxidase Type A
[7] = 50 mg/kg, p.o., 1.0 h, read-out: Ex vivo inhibition (%) of monoamine oxidase Type A
[8] = 50 mg/kg, p.o., 4.0 h, read-out: Ex vivo inhibition (%) of monoamine oxidase Type A
[9] = 50 mg/kg, p.o., 24.0 h, read-out: Ex vivo inhibition (%) of monoamine oxidase Type A
[10] = 50 mg/kg, p.o., 0.5 h, read-out: Ex vivo inhibition (%) of monoamine oxidase Type B
[11] = 50 mg/kg, p.o., 1.0 h, read-out: Ex vivo inhibition (%) of monoamine oxidase Type B
[12] = 50 mg/kg, p.o., 4.0 h, read-out: Ex vivo inhibition (%) of monoamine oxidase Type B
[13] = 50 mg/kg, p.o., 24.0 h, read-out: Ex vivo inhibition (%) of monoamine oxidase Type B

T1 sequence (P37136 32-614): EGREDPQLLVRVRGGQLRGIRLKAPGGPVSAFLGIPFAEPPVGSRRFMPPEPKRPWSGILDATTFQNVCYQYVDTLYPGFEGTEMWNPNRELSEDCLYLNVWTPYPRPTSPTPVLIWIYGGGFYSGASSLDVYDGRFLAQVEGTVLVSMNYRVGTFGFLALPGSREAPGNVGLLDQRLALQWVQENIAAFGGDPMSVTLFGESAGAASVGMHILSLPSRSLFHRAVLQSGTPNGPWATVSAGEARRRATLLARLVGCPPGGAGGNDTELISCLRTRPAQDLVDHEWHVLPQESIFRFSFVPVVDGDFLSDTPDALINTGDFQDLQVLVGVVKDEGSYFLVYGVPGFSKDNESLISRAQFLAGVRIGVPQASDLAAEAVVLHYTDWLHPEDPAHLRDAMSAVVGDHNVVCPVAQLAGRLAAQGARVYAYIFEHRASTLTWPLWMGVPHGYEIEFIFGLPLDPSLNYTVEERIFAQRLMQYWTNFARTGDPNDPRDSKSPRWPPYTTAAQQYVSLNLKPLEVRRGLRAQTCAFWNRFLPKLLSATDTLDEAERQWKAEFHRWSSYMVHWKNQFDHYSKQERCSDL

For `N[C@@H]1C[C@H]1c1ccccc1` (relative stereo) [tranylcypromine], the “selectivity of monoamine oxidase inhibition (type A / type B)” value [1] is listed as “nonselective inhibitors”.
`CN(C)C(=O)Oc1ccc2c(N3CCN(c4ccncc4)CC3)noc2c1` [3-[1-(4-Pyridyl)piperazinyl]-1,2-benzisoxazol-6-yl dimethylcarbamate] showed an IC50 [2] of 0.88 µM.
With `CNC(=O)Oc1ccc2c(N(C)CCN3CCOCC3)noc2c1` [3-[[2-(4-Morpholinyl)ethyl]methylamino]1,2-benzisoxazol-6-yl methylcarbamate] the IC50 [2] was 13 µM, the inhibition at 50 mg/kg ([3]; read-out: Ex vivo inhibition (%) of monoamine oxidase Type A, 50 mg/kg, p.o., 0.5 h) was 26% and the inhibition at 50 mg/kg ([3]; read-out: Ex vivo inhibition (%) of monoamine oxidase Type A, 50 mg/kg, p.o., 1.0 h) was 29%. It also gave an inhibition at 50 mg/kg ([3]; read-out: Ex vivo inhibition (%) of monoamine oxidase Type A, 50 mg/kg, p.o., 4.0 h) of 42%, an inhibition at 50 mg/kg ([3]; read-out: Ex vivo inhibition (%) of monoamine oxidase Type A, 50 mg/kg, p.o., 24.0 h) of 14% and an inhibition at 50 mg/kg ([4]; read-out: Ex vivo inhibition (%) of monoamine oxidase Type B, 50 mg/kg, p.o., 0.5 h) of 19%. For the same molecule, the inhibition at 50 mg/kg ([4]; read-out: Ex vivo inhibition (%) of monoamine oxidase Type B, 50 mg/kg, p.o., 1.0 h) was 19%, the inhibition at 50 mg/kg ([4]; read-out: Ex vivo inhibition (%) of monoamine oxidase Type B, 50 mg/kg, p.o., 4.0 h) was 28% and the inhibition at 50 mg/kg ([4]; read-out: Ex vivo inhibition (%) of monoamine oxidase Type B, 50 mg/kg, p.o., 24.0 h) was 12%.
Molecule `COc1ccc2c(N(C)CCC3CCN(Cc4ccccc4)CC3)noc2c1` [6-Methoxy-N-methyl-N-[2-[4-(1-phenylmethyl)piperdinyl]ethyl]-1,2-benzisoxazol-3-amine sesquihydrochloride] has an IC50 [2, 5] of 4 µM.
In the case of `CN(C)C(=O)Oc1ccc2c(N(C)CCN3CCOCC3)noc2c1Br` [7-Bromo-3-[N-methyl, N,2-(4-morpholinyl)ethyl]amino-1,2-benzisoxazol-6-yl dimethylcarbamate], the IC50 [2] is reported as 2 µM.
In the case of `COc1ccc2c(N3CCN(c4ccncc4)CC3)noc2c1Br` [7-Bromo-6-methoxy-3-[1-(4-pyridyl)piperazinyl]-1,2-benzisoxazole], the IC50 [2, 5] is reported as 14 µM.
For `C#CCN(C)CCCOc1ccc(Cl)cc1Cl` [Clorgyline], the “selectivity of monoamine oxidase inhibition (type A / type B)” value [1] is listed as “selective inhibitor of the type A enzyme”.
For `c1ccc2c(NCCN3CCOCC3)noc2c1` [N-[2-(4-Morpholinyl)ethyl]-1,2-benzisoxazol-3-amine], the inhibition at 50 mg/kg [3, 6] was 88%, the inhibition at 50 mg/kg [3, 7] was 85% and the inhibition at 50 mg/kg [3, 8] was 68%. The inhibition at 50 mg/kg [3, 9] was 3.5%, the inhibition at 50 mg/kg [4, 10] was 52% and the inhibition at 50 mg/kg [4, 11] was 45%. It also gave an inhibition at 50 mg/kg [4, 12] of 33% and an inhibition at 50 mg/kg [4, 13] of 0%.
In the case of `CN(CCN1CCOCC1)c1noc2ccccc12` [N-methyI-N-[2-(4-morpholinyl)ethyl]-1,2-benzisoxazol-3-amine], the inhibition at 50 mg/kg [3, 6] is reported as 78%, the inhibition at 50 mg/kg [3, 7] is reported as 66% and the inhibition at 50 mg/kg [3, 8] is reported as 76%. It also gave an inhibition at 50 mg/kg [3, 9] of 11%, an inhibition at 50 mg/kg [4, 10] of 32% and an inhibition at 50 mg/kg [4, 11] of 25%. For the same molecule, the inhibition at 50 mg/kg [4, 12] was 36% and the inhibition at 50 mg/kg [4, 13] was 0%.
In the case of `C#CCN(C)C(C)Cc1ccccc1` (stereo not shown) [deprenyl], the “selectivity of monoamine oxidase inhibition (type A / type B)” value [1] is given as “selective inhibitors of the type B enzyme”.
For `CC(C)NNC(=O)c1ccncc1` [iproniazid], the “selectivity of monoamine oxidase inhibition (type A / type B)” value [1] is listed as “nonselective inhibitors”.
In the case of `C#CCN(C)Cc1ccccc1` [pargyline], the “selectivity of monoamine oxidase inhibition (type A / type B)” value [1] is listed as “selective inhibitors of the type B enzyme”.

Source: US5580982A, “Substituted 3-(aminoalkylamino)-1,2-benzisoxazoles and related compounds” (priority 1995, dated 1996)
